# Tests used:
# Muscarinic M2 = Muscarinic M2 (Homo sapiens, UniProt P08172); experiment: radioligand binding (Table S2); conditions: read-out: % Inhibition @ 10 µM
# Potassium channel hERG = Potassium channel hERG (Homo sapiens, UniProt Q12809); experiment: in vitro
# Apelin APJ = Apelin APJ (Homo sapiens, UniProt P35414); experiment: radioligand binding (Table S2); conditions: [125I] [Glp65, Nle75, Tyr77]-apelin-13, Human recombinant CHO cells
# [1] = target: Gamma-aminobutyric acid GABAB1B (Homo sapiens, UniProt Q9UBS5); experiment: radioligand binding (Table S2); conditions: read-out: % Inhibition @ 10 µM
# Gamma-aminobutyric acid GABAB1B, sequence (Q9UBS5 1-844 isoform Q9UBS5-2): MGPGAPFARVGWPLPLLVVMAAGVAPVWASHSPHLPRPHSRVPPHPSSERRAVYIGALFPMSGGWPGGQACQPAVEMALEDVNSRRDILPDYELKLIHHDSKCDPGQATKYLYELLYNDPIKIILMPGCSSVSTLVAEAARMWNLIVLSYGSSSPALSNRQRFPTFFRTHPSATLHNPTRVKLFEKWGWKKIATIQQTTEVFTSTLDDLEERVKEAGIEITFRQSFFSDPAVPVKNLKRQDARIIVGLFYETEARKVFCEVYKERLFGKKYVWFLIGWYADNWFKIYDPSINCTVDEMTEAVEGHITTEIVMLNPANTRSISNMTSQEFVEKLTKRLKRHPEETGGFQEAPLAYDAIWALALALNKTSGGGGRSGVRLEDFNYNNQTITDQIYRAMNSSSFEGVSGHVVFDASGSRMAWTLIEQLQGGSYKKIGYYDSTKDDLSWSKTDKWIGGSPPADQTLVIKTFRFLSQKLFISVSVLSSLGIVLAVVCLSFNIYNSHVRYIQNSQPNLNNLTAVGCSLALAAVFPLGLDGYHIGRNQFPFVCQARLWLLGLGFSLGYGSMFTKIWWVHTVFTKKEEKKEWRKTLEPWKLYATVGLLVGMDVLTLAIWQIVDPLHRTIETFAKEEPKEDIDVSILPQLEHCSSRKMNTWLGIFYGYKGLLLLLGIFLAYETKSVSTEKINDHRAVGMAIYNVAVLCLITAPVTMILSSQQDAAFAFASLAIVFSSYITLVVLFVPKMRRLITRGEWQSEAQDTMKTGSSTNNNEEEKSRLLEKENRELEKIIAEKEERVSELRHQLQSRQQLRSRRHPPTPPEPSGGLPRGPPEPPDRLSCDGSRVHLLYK
# Dopamine transporter = target: T1, Dopamine transporter (Homo sapiens, UniProt Q01959); experiment: radioligand binding (Table S2); conditions: [3H] BTCP, Human recombinant CHO cells
# T1 construct: host or cells: CHO cells
# B2 receptor = target: T2, B2 receptor (Homo sapiens, UniProt P30411); experiment: reversibility of antagonism after washout, umbilical vein; conditions: for EC50: BK EC50 (nM)
# T2 sequence (P30411 1-391): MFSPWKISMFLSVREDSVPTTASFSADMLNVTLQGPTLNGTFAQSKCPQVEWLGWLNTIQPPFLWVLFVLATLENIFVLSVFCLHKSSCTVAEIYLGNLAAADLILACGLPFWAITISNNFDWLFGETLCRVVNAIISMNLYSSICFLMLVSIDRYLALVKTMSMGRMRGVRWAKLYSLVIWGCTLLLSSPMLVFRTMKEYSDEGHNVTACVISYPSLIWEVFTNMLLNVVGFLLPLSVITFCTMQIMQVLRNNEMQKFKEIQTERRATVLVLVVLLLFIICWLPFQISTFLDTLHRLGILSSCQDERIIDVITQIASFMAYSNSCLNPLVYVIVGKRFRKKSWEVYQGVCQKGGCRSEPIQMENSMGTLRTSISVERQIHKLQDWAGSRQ
# Neuropeptide Y2 = target: T3, Neuropeptide Y2 (Homo sapiens, UniProt P49146); experiment: radioligand binding (Table S2); conditions: [125I] Peptide YY, KAN-TYS cells
# T3 construct: KAN-TYS cells; host or cells: KAN-TYS cells
# Purinergic receptor P2Y = experiment: radioligand binding (Table S2); conditions: [35S] dATPαS, Rat cerebral cortex
# [2] = target: Cholecystokinin CCK2 (CCKB) (Homo sapiens, UniProt P32239); experiment: radioligand binding (Table S2); conditions: [125I] CCK-8, Human recombinant Chem-1 cells
# Cholecystokinin CCK2 (CCKB), sequence (P32239 whole entry): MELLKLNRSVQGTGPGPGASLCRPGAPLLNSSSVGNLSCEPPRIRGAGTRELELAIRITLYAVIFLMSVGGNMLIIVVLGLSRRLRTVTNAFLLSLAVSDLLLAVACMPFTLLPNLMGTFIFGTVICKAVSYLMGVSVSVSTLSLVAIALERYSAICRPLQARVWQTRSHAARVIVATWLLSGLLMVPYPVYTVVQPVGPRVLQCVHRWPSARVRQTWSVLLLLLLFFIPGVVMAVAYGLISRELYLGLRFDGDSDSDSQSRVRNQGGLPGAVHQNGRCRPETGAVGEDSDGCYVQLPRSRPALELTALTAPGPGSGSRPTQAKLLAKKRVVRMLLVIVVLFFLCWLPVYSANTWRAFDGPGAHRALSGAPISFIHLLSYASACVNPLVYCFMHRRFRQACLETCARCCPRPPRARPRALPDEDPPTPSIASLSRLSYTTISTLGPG
# [3] = target: T4, Nicotinic N neuronal α4β2 (Homo sapiens, UniProt P17787+P43681); experiment: radioligand binding (Table S2); conditions: [3H] Cytisine, Human recombinant SH-SY5Y cells
# T4 construct: host or cells: SH-SY5Y cells
# Bombesin BB1 = target: T5, Bombesin BB1 (Homo sapiens, UniProt P28336); experiment: functional assay, intracellular [Ca2+], CHO cells (Table S2); format: cell-based
# T5 construct: host or cells: CHO cells
# T5 sequence (P28336 whole entry): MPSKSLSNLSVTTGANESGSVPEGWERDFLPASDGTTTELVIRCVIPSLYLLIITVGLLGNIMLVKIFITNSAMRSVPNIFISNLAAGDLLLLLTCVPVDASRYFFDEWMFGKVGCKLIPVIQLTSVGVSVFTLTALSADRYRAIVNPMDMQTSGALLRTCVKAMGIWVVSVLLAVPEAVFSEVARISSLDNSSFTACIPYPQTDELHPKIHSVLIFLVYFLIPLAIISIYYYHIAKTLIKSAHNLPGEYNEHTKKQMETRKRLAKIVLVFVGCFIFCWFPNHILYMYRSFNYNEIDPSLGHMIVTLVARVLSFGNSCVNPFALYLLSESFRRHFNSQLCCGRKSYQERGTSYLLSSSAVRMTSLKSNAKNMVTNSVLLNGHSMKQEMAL
# Vasopressin V1a = target: T6, Vasopressin V1a (Homo sapiens, UniProt P37288); experiment: radioligand binding (Table S2); conditions: [3H] AVP, Human recombinant CHO cells
# T6 construct: host or cells: CHO cells
# T6 sequence (P37288 whole entry): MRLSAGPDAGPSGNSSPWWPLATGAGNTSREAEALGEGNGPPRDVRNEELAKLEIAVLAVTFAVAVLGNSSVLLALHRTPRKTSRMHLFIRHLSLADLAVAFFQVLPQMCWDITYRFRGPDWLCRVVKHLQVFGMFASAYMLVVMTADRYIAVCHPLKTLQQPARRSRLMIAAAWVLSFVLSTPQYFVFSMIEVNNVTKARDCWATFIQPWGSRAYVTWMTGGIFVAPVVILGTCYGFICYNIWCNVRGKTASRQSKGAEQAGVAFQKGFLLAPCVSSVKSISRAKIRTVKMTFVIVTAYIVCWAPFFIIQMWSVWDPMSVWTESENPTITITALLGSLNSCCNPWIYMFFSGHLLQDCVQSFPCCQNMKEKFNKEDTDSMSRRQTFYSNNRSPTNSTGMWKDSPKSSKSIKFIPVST
# Serotonin 5-HT1B = target: T7, Serotonin 5-HT1B (Rattus norvegicus, UniProt P28564); experiment: radioligand binding (Table S2); conditions: [125I] CYP (+ 30 µM isoproterenol), Rat cerebral cortex
# T7 construct: tissue Eurofins; host or cells: rat cerebral cortex
# Bombesin BB2 = target: T8, Bombesin BB2 (Homo sapiens, UniProt P30550); experiment: radioligand binding (Table S2); conditions: [125I] [Tyr4]-bombesin, Human recombinant HEK-293 cells
# T8 construct: host or cells: HEK-293 cells
# T8 sequence (P30550 whole entry): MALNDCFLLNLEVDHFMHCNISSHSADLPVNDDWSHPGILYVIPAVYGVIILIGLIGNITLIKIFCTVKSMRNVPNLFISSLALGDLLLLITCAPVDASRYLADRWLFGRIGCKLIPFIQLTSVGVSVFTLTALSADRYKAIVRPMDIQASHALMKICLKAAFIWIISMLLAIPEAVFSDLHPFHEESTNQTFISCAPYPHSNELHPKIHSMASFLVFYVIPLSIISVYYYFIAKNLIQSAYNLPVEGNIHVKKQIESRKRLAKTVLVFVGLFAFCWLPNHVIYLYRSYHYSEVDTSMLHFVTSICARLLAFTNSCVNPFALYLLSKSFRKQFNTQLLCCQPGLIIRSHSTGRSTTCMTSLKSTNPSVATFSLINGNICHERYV
# Vasopressin V2 = target: T9, Vasopressin V2 (Homo sapiens, UniProt P30518); experiment: functional assay, cAMP HTRF, CHO cells (Table S2); format: cell-based; conditions: read-out: % inhibition of reference agonist response @ 10 µM (antagonist effect), AVP (0.03 nM)
# T9 construct: expressed in transfected cells; host or cells: CHO cells
# Lck kinase = Lck kinase (Homo sapiens, UniProt P06239); experiment: enzyme assay (Table S2); format: biochemical; conditions: ATP + Ulight-PolyGAT (25 nM), LANCE
# Lck kinase, sequence (P06239 whole entry): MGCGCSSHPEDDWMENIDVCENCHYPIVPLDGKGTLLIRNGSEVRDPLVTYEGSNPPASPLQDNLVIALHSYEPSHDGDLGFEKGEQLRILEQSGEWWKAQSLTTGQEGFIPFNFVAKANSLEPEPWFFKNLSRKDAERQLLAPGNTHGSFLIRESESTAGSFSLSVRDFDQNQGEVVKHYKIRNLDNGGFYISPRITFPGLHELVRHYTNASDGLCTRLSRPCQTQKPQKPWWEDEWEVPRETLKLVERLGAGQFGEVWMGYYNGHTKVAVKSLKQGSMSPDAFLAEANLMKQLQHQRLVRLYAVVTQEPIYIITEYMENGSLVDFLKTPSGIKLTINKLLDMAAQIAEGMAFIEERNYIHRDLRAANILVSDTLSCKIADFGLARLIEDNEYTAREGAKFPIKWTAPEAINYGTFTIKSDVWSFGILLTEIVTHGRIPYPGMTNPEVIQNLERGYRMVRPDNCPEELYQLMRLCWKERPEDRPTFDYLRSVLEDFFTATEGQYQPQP
# Monoamino-oxidase MAO-A = target: T10, Monoamino-oxidase MAO-A (Rattus norvegicus, UniProt P21396); experiment: radioligand binding (Table S2); conditions: [3H] Ro 41-1049, Rat cerebral cortex
# T10 construct: Rat cerebral cortex; from tissue; host or cells: rat cerebral cortex
# T10 sequence (P21396 whole entry): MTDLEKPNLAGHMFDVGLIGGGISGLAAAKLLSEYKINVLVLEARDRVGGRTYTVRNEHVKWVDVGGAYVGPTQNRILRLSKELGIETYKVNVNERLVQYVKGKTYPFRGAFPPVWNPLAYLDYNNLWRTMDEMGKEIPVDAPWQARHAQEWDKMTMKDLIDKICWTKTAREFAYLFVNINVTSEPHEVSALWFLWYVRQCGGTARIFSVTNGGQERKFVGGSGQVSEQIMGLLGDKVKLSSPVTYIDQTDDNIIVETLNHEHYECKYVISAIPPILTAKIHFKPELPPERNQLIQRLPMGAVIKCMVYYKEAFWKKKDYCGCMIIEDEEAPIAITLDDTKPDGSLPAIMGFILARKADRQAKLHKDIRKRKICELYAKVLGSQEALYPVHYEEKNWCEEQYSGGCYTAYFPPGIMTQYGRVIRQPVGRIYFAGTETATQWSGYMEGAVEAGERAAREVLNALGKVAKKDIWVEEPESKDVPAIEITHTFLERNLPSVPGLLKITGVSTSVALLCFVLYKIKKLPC
# [4] = test system: Chloride Cl- channel (GABA-gated); experiment: radioligand binding (Table S2); conditions: [35S] TBPS, Rat cerebral cortex
# PDGFRβ kinase = target: T11, PDGFRβ kinase (Homo sapiens, UniProt P09619); experiment: enzyme assay (Table S2); format: biochemical; conditions: ATP + Ulight-PolyGAT (25 nM), LANCE
# T11 construct: host or cells: insect cells
# T11 sequence (P09619 33-1106): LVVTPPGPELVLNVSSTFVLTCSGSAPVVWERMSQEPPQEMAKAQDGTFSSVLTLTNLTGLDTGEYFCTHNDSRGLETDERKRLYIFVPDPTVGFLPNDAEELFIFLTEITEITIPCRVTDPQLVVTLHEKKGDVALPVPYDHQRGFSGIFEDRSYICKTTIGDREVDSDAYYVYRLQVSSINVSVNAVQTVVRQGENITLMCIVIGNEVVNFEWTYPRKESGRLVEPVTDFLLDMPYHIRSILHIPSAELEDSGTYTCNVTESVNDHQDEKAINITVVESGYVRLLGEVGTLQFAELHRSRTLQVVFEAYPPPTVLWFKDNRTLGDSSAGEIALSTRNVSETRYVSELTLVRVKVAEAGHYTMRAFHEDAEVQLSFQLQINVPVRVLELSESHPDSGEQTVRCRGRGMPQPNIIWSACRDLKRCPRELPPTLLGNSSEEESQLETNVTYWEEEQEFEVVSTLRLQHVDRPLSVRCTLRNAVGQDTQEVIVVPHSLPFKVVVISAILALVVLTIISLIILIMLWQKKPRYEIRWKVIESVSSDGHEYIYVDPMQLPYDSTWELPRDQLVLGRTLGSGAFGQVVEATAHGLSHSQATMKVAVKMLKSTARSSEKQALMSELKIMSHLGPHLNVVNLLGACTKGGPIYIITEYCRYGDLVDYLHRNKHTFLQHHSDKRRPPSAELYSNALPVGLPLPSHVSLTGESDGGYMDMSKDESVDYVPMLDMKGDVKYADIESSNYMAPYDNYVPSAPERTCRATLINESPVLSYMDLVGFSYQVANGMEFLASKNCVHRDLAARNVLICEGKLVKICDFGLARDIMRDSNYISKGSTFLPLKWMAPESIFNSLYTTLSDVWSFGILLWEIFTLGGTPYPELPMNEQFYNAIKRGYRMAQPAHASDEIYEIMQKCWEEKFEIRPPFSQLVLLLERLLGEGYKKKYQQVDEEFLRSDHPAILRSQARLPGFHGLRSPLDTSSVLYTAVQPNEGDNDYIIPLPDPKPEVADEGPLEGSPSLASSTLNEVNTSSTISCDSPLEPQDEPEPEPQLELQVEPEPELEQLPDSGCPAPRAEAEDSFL
# Prostanoid CRTH2 = target: T12, Prostanoid CRTH2 (Homo sapiens, UniProt Q9Y5Y4); experiment: radioligand binding (Table S2); conditions: [3H] Prostaglandin D2, Human recombinant CHO-K1 cells
# T12 construct: host or cells: CHO-K1 cells
# T12 sequence (Q9Y5Y4 whole entry): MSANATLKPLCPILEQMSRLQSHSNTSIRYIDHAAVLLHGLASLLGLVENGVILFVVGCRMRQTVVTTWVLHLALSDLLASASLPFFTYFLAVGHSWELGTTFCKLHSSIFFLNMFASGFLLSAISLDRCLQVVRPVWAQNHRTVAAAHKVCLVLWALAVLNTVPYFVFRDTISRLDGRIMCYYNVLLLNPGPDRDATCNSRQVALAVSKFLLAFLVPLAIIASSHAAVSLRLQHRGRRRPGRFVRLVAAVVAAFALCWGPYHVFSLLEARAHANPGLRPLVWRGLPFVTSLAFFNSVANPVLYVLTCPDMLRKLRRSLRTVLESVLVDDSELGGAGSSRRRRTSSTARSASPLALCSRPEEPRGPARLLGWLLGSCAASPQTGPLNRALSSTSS
# Neuropeptide Y1 = target: T13, Neuropeptide Y1 (Homo sapiens, UniProt P25929); experiment: radioligand binding (Table S2); conditions: [125I] Peptide YY, SK-N-MC cells (endogenous)
# T13 construct: (endogenous); host or cells: SK-N-MC cells
# [5] = test system: Glutamate, NMDA, phencyclidine; experiment: radioligand binding (Table S2); conditions: [3H] TCP, Wistar rat cerebral cortex
# Endothelin ETB = target: T14, Endothelin ETB (Homo sapiens, UniProt P24530); experiment: radioligand binding (Table S2); conditions: [125I] Endothelin-1, Human recombinant CHO cells
# T14 construct: host or cells: CHO cells
# [6] = target: T15, endogenous human B2 receptor (Homo sapiens, UniProt P30411); experiment: human isolated umbilical vein contractility assay, BK-induced contraction
# T15 construct: BK-induced contraction at endogenous human B2 receptor in the umbilical vein model; from tissue; host or cells: human umbilical vein rings (donor cords after elective caesarean section)
# T15 sequence (P30411 1-391): T2 sequence (P30411 1-391)
# Histamine H1 = target: T16, Histamine H1 (Homo sapiens, UniProt P35367); experiment: radioligand binding (Table S2); conditions: [3H] Pyrilamine, Human recombinant HEK-293 cells
# T16 construct: host or cells: HEK-293 cells
compound,measurement,setting,value
"Cc1cc(-c2ncnn2C)c2cccc(OCc3c(Cl)cc(F)cc3[C@H](C)NC(=O)COC(F)F)c2n1 [Compound 3, (S)-N-(1-(3-chloro-5-fluoro-2-((2-methyl-4-(1-methyl-1H-1,2,4-triazol-5-yl)quinolin-8-yloxy)methyl)phenyl)ethyl)-2-(difluoromethoxy)acetamide]",inhibition at 10 µM,Muscarinic M2,-12.4%
same,"inhibition at 60 min, 10 µM",Potassium channel hERG,17.8%
same,inhibition at 10 µM,Apelin APJ,-0.4%
same,inhibition at 10 µM,[1],9%
same,inhibition at 10 µM,Dopamine transporter,2.2%
same,reversibility of antagonism after washout,B2 receptor; 100 nM,partial or slow reversibility
same,reversibility of antagonism after washout,B2 receptor; 1 and 10 nM,fully reversible
same,EC50,"B2 receptor; after washout, 5 h, washout after Compound 3 1 nM, 5 h, vehicle washout 20.8 nM",22 nM
same,EC50,"B2 receptor; after washout, 5 h, washout after Compound 3 10 nM, 5 h, vehicle washout 20.8 nM",38.5 nM
same,EC50,"B2 receptor; after washout, 5 h, washout after Compound 3 100 nM, 5 h, vehicle washout 11.7 nM",84.1 nM
same,EC50,"B2 receptor; antagonist present, 3 h, Compound 3 1 nM, vehicle 3 h 18.7 nM",67.4 nM
same,EC50,"B2 receptor; antagonist present, 3 h, Compound 3 10 nM, vehicle 3 h 18.7 nM",225 nM
same,EC50,"B2 receptor; antagonist present, 3 h, Compound 3 100 nM, vehicle 3 h 7.5 nM",713 nM
same,inhibition at 10 µM,Neuropeptide Y2,-19.1%
same,% Inhibition @ 10 µM,Purinergic receptor P2Y,-4.3%
same,inhibition at 10 µM,[2],1%
same,inhibition at 10 µM,[3],-33.6%
same,inhibition at 10 µM,"Bombesin BB1; CHO, read-out: % inhibition of reference agonist response @ 10 µM (antagonist effect), Neuromedin B (0.1 nM)",28.5%
same,% of reference agonist response @ 10 µM (agonist effect),Bombesin BB1; reference neuromedin B (10 nM),4.4%
same,% Inhibition @ 10 µM,Vasopressin V1a,84%
same,inhibition at 10 µM,Vasopressin V1a,84.1%
same,inhibition at 10 µM,Serotonin 5-HT1B,-2.5%
same,inhibition at 10 µM,Bombesin BB2,-1.4%
same,inhibition at 10 µM,Vasopressin V2,-15.1%
same,inhibition at 10 µM,Lck kinase,9.5%
same,inhibition at 10 µM,Monoamino-oxidase MAO-A,-1.3%
same,% Inhibition @ 10 µM,[4],32.9%
same,inhibition at 10 µM,PDGFRβ kinase,-1%
same,inhibition at 10 µM,Prostanoid CRTH2,3%
same,inhibition at 10 µM,Neuropeptide Y1,-2.6%
same,% Inhibition @ 10 µM,[5],-2%
same,inhibition at 10 µM,Endothelin ETB,7.2%
same,Kb,[6],0.000214 µM
same,type of antagonism of BK,"[6]; BK concentration-effect curves, Emax",competitive
same,pA2,"[6]; Schild plot, Pharm/PCS, ± S.E.M. where given",9.67 ± 0.42
same,Schild plot slope,"[6]; Schild regression, Pharm/PCS, ± S.E.M. where given",−0.76
same,Maximal BK-induced response in absolute force units ± S.E.M.,"[6]; antagonist 1 nM, vehicle for Compound 3 1.52 ± 0.20",1.75 ± 0.32 grams-weight
same,Maximal BK-induced response in absolute force units ± S.E.M.,"[6]; antagonist 10 nM, vehicle: Icatibant 1.90, Compound 1 […], Compound 2 2.25, Compound 3 1.52",2.29 ± 0.24 grams-weight
same,Maximal BK-induced response in absolute force units ± S.E.M.,"[6]; antagonist 100 nM, vehicle: Icatibant 1.90, Compound 1 […], Compound 2 2.25, Compound 3 1.52",2.42 ± 0.36 grams-weight
same,Maximal BK-induced response in absolute force units ± S.E.M.,"[6]; antagonist 1 μM, vehicle: Icatibant 1.90, Compound 1 […], Compound 2 2.25, Compound 3 1.52",1.25 ± 0.14 grams-weight
same,pA2 value converted into nM,[6]; potency from pA2,0.21 nM
same,inhibition at 10 µM,Histamine H1,2.5%

# — article PMC7316994, “In Vitro Pharmacological Profile of a New Small Molecule Bradykinin B2 Receptor Antagonist” (Frontiers in Pharmacology, 2020)
